In brackets after ≈: the same amount, converted by molar mass.
Tested on: KB
Test: Cytotoxicity against human KB cells
Type: functional
Conditions: read-out: ED50 (the source's name)

`C=C(C)C(=O)O[C@H]1C/C(C=O)=C/CC[C@@]2(C)O[C@H]2[C@H]2OC(=O)C(=C)[C@@H]21` [TOMENPHANTIN B] showed an EC50 of 2.7 µg/mL (≈ 7.79 µM).

Compound `C=C(C)C(=O)O[C@H]1C/C(CO)=C/CC[C@@]2(C)O[C@H]2[C@H]2OC(=O)C(=C)[C@@H]21` [TOMENPHANTIN A] has an EC50 of 3 µg/mL (≈ 8.61 µM).
